Data from ChEMBL document CHEMBL1201862, “PubChem BioAssay data set” (2004).
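96-well plates; 48 h exposure; 5 concentrations. Endpoints by linear interpolation between flanking doses. Not reached: highest tested concentration assigned. At the GI50, growth is halved.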 Calls of active or inactive are those of the source. Rule as the data show it: active = GI50 up to about 1.1 µM and inactive = higher.

How the values were obtained:
Assay in all cases: inhibition of tumour cell growth, NCI panel, 48 h
[1] = tested on: UACC-257
[2] = tested on: K562
[3] = tested on: A549
[4] = tested on: NCI-H522
[5] = tested on: SNB-75
[6] = tested on: PC-3
[7] = tested on: HCC 2998
[8] = tested on: HOP-62
[9] = tested on: SK-MEL-5
[10] = tested on: NCI-H23
[11] = tested on: NCI-H226
[12] = tested on: NCI-H460
[13] = tested on: MDA-MB-231
[14] = tested on: OVCAR-4
[15] = tested on: LOX IMVI
[16] = tested on: MOLT-4
[17] = tested on: KM12
[18] = tested on: RXF 393
[19] = tested on: RPMI-8226
[20] = tested on: EKVX

Row | SMILES | GI50 [1] | GI50 [2] | GI50 [3] | GI50 [4] | GI50 [5] | GI50 [6] | GI50 [7] | GI50 [8] | GI50 [9] | GI50 [10] | GI50 [11] | GI50 [12] | GI50 [13] | GI50 [14] | GI50 [15] | GI50 [16] | GI50 [17] | GI50 [18] | GI50 [19] | GI50 [20]
1 | CC(C)=CCc1c(O)cc2oc(-c3ccc(O)cc3O)cc(=O)c2c1O | 30.9 µM (inactive) | 8.87 µM (inactive) | 28.5 µM (inactive) | 22.3 µM (inactive) | 23.8 µM (inactive) | 34.7 µM (inactive) | 17.3 µM (inactive) | 33.3 µM (inactive) | 19.9 µM (inactive) | 24.6 µM (inactive) | 57 µM (inactive) | 36.6 µM (inactive) | 26.4 µM (inactive) | 20.2 µM (inactive) | 9.53 µM (inactive) | 1.95 µM (inactive) | 19.5 µM (inactive) | 26.4 µM (inactive) | 17.4 µM (inactive) | 42.3 µM (inactive)
2 | O=C1c2ccccc2C(=O)c2c1ccc1nc3c(nc21)-c1c2ccccc2cc2cccc-3c12 | > 100 µM (inactive) | > 29.6 µM (inactive) | 45.6 µM (inactive) | 27.2 µM (inactive) | 19.5 µM (inactive) | 41.9 µM (inactive) | > 95.3 µM (inactive) | 26.5 µM (inactive) | 46.7 µM (inactive) | 41.6 µM (inactive) | > 68.9 µM (inactive) | 26.2 µM (inactive) | 74.1 µM (inactive) | > 70.1 µM (inactive) | 19.9 µM (inactive) | 18.6 µM (inactive) | 8.36 µM (inactive) | 39.4 µM (inactive) | 39.5 µM (inactive) | 18.3 µM (inactive)
3 | COC(=O)C1(Cc2ccccc2)Cc2cc3c(cc2C1O)CCC3 (stereo not given) | 18.2 µM (inactive) | 19.7 µM (inactive) | 24 µM (inactive) | 17.4 µM (inactive) | 34.8 µM (inactive) | 19 µM (inactive) | 24.9 µM (inactive) | 19.3 µM (inactive) | 15.9 µM (inactive) | 15 µM (inactive) | 19.5 µM (inactive) | 30.1 µM (inactive) | 18.3 µM (inactive) | 15 µM (inactive) | 19.1 µM (inactive) | 17.5 µM (inactive) | 21.3 µM (inactive) | 15 µM (inactive) | 22.7 µM (inactive) | 22.9 µM (inactive)
4 | CCC/C(Cl)=N\OC(=O)Nc1ccc(Br)cc1 | 13.5 µM (inactive) | 1.94 µM (inactive) | 18.4 µM (inactive) | 1.75 µM (inactive) | 13.5 µM (inactive) | 14.7 µM (inactive) | 17.3 µM (inactive) | 20.9 µM (inactive) | 14.6 µM (inactive) | 17.4 µM (inactive) | 21.6 µM (inactive) | 16.5 µM (inactive) | 16.9 µM (inactive) | 21.5 µM (inactive) | 3.89 µM (inactive) | 2.55 µM (inactive) | 10.8 µM (inactive) | 16.6 µM (inactive) | 2.96 µM (inactive) | 14.6 µM (inactive)
5 | CC(=O)/C=C/C=C(\C)CC/C=C(\C)CC(C)C | 23.3 µM (inactive) | 21.6 µM (inactive) | 34 µM (inactive) | 17.6 µM (inactive) | 35.2 µM (inactive) | 38.2 µM (inactive) | 18.4 µM (inactive) | 41.3 µM (inactive) | 18.5 µM (inactive) | 23.6 µM (inactive) | 26.9 µM (inactive) | 29.9 µM (inactive) | 40.9 µM (inactive) | 42.1 µM (inactive) | 18.3 µM (inactive) | 18.1 µM (inactive) | 27.7 µM (inactive) | 16.2 µM (inactive) | 17.1 µM (inactive) | 37.3 µM (inactive)
6 | CC1=Nn2c(nc3sc4c(c3c2=O)CCCC4)SC1 | > 100 µM (inactive) | 39.9 µM (inactive) | > 83.6 µM (inactive) | 53.2 µM (inactive) | 64.9 µM (inactive) | 63 µM (inactive) | 99.5 µM (inactive) | > 100 µM (inactive) | 62.4 µM (inactive) | > 100 µM (inactive) | > 100 µM (inactive) | 48.2 µM (inactive) | > 50.4 µM (inactive) | 71.3 µM (inactive) | 21.4 µM (inactive) | 44.2 µM (inactive) | > 83.9 µM (inactive) | > 75.7 µM (inactive) | 69.2 µM (inactive) | > 69.5 µM (inactive)
7 | C/C(=N\N=C(/S)N1CC2CCC(CC2)C1)c1cccc[n+]1[O-] | 7.59 µM (inactive) | 0.228 µM (active) | 4.98 µM (inactive) | 11.4 µM (inactive) | 11.5 µM (inactive) | 11.7 µM (inactive) | 10.8 µM (inactive) | 12.6 µM (inactive) | 6.21 µM (inactive) | 16.6 µM (inactive) | 3.41 µM (inactive) | 8.09 µM (inactive) | 19.5 µM (inactive) | 2.46 µM (inactive) | 5.02 µM (inactive) | 0.373 µM (active) | 4.56 µM (inactive) | 13.7 µM (inactive) | 0.381 µM (active) | 7.45 µM (inactive)
8 | CC(=O)OCC12C(OC(C)=O)C(=O)C3C(OC(C)=O)C14OC3(C)COC(=O)c1cccnc1C(C)C(C)C(=O)OC(C(OC(C)=O)C2OC(C)=O)C4(C)O (stereo not given) | > 100 µM (inactive) | > 100 µM (inactive) | > 100 µM (inactive) | > 100 µM (inactive) | > 100 µM (inactive) | > 100 µM (inactive) | > 100 µM (inactive) | > 100 µM (inactive) | > 100 µM (inactive) | > 100 µM (inactive) | > 100 µM (inactive) | > 100 µM (inactive) | > 100 µM (inactive) | > 100 µM (inactive) | > 100 µM (inactive) | 52.2 µM (inactive) | > 100 µM (inactive) | > 100 µM (inactive) | > 100 µM (inactive) | > 100 µM (inactive)
9 | O=C1CC(C(O)C(O)C(O)CO)CC(=O)N1 (stereo not given) | > 100 µM (inactive) | > 100 µM (inactive) | > 100 µM (inactive) | > 100 µM (inactive) | > 100 µM (inactive) | > 100 µM (inactive) | > 100 µM (inactive) | > 100 µM (inactive) | > 100 µM (inactive) | > 100 µM (inactive) | > 100 µM (inactive) | > 100 µM (inactive) | > 100 µM (inactive) | > 100 µM (inactive) | > 100 µM (inactive) | > 100 µM (inactive) | > 100 µM (inactive) | > 100 µM (inactive) | > 100 µM (inactive) | > 100 µM (inactive)
10 | O=C1C(C(c2ccc([N+](=O)[O-])cc2)N2CCOCC2)=C(O)C(c2ccccc2)N1c1ccccc1 (stereo not given) | > 10 µM (inactive) | > 10 µM (inactive) | > 10 µM (inactive) | > 10 µM (inactive) | 6.14 µM (inactive) | > 10 µM (inactive) | > 10 µM (inactive) | > 10 µM (inactive) | > 10 µM (inactive) | > 10 µM (inactive) | > 10 µM (inactive) | > 10 µM (inactive) | > 10 µM (inactive) | > 10 µM (inactive) | > 10 µM (inactive) | > 10 µM (inactive) | > 10 µM (inactive) | > 10 µM (inactive) | > 10 µM (inactive) | > 10 µM (inactive)
11 | C/C(=N\NC(=S)N1CCN(c2ccccn2)CC1)c1ccccn1 | 0.00135 µM (active) | 0.00296 µM (active) | 0.111 µM (active) | 0.0818 µM (active) | 3.23 µM (inactive) | 0.0304 µM (active) | 0.931 µM (active) | 0.035 µM (active) | 0.0944 µM (active) | 0.022 µM (active) | 0.649 µM (active) | 0.252 µM (active) | 0.0495 µM (active) | 0.331 µM (active) | 0.0403 µM (active) | 0.0156 µM (active) | 0.129 µM (active) | 0.4 µM (active) | 0.00681 µM (active) | < 0.0154 µM (active)
12 | Nc1ncnc2c1ncn2[C@@H]1O[C@H](COP(=O)(O)OP(=O)(O)OC[C@H]2O[C@@H](OCCCO)[C@H](O)[C@@H]2O)[C@@H](O)[C@H]1O | > 100 µM (inactive) | > 100 µM (inactive) | 87.7 µM (inactive) | > 100 µM (inactive) | > 100 µM (inactive) | > 100 µM (inactive) | > 100 µM (inactive) | > 100 µM (inactive) | > 100 µM (inactive) | > 100 µM (inactive) | > 100 µM (inactive) | 34.6 µM (inactive) | > 100 µM (inactive) | > 100 µM (inactive) | 56.8 µM (inactive) | > 100 µM (inactive) | 63.5 µM (inactive) | > 100 µM (inactive) | > 100 µM (inactive) | > 100 µM (inactive)
13 | C[N+]12CCCCC1C(CN1C(=O)Cc3c4ccccc4c(c4ccccc34)CC1=O)CCC2 (stereo not given) | > 100 µM (inactive) | > 100 µM (inactive) | > 100 µM (inactive) | > 100 µM (inactive) | > 100 µM (inactive) | > 100 µM (inactive) | > 100 µM (inactive) | > 100 µM (inactive) | > 100 µM (inactive) | > 100 µM (inactive) | > 100 µM (inactive) | > 100 µM (inactive) | > 100 µM (inactive) | > 100 µM (inactive) | > 100 µM (inactive) | > 100 µM (inactive) | > 100 µM (inactive) | > 100 µM (inactive) | > 100 µM (inactive) | > 100 µM (inactive)
14 | O=C(Cc1ccc(OCc2cccc(Cl)c2)cc1)NO | 53.5 µM (inactive) | 16.1 µM (inactive) | 27.5 µM (inactive) | 15.8 µM (inactive) | 25.8 µM (inactive) | 9.18 µM (inactive) | 58.7 µM (inactive) | 24.6 µM (inactive) | 33.3 µM (inactive) | 34 µM (inactive) | 19.4 µM (inactive) | 23.1 µM (inactive) | 41.8 µM (inactive) | 15.3 µM (inactive) | 11.7 µM (inactive) | 2.98 µM (inactive) | 27.6 µM (inactive) | 26 µM (inactive) | 3.77 µM (inactive) | 25.3 µM (inactive)
